# Active and inactive are the calls of the source. The calls are words filed in the database; no cut-off is given here.
# Legend:
# Avena fatua [1] = assay: Post-emergence growth inhibition of Avena fatua after 9 days; type: functional
# Avena fatua [2] = assay: Pre-emergence growth inhibition of Avena fatua assessed as visual injury at 0.5 kg/ha after 16 days relative to control; type: functional; parameters: scale not given: the % may be the effect or the level left
# Ipomoea hederacea [3] = assay: Herbicidal activity against Ipomoea hederacea (ivy-leaved morning glory) assessed as visual injury at 1 ug/seedling applied to cotyledon after 1 week relative to control; type: functional
# Ipomoea hederacea [4] = assay: Herbicidal activity against Ipomoea hederacea (ivy-leaved morning glory) assessed as visual injury at 100 ug/seedling applied to cotyledon after 1 week relative to control; type: functional
# Ipomoea hederacea [5] = assay: Herbicidal activity against Ipomoea hederacea (ivy-leaved morning glory) assessed as visual injury at 1 ug/seedling applied to meristem after 1 week relative to control; type: functional
# Helianthus annuus [6] = assay: Herbicidal activity against Helianthus annuus (sunflower) assessed as visual injury at 10 ug/seedling applied to cotyledon after 1 week relative to control; type: functional
# Helianthus annuus [7] = assay: Herbicidal activity against Helianthus annuus (sunflower) assessed as visual injury at 100 ug/seedling applied to cotyledon after 1 week relative to control; type: functional
# Helianthus annuus [8] = assay: Herbicidal activity against Helianthus annuus (sunflower) assessed as visual injury at 1 ug/seedling applied to meristem after 1 week relative to control; type: functional
# Abutilon theophrasti [9] = assay: Herbicidal activity against Abutilon theophrasti (velvetleaf) assessed as visual injury at 1 ug/seedling applied to leaf after 1 week relative to control; type: functional
# Avena fatua [10] = assay: Pre-emergence growth inhibition of Avena fatua assessed as meristematic at 0.5 to 4 kg/ha after 16 days; type: functional, organism-based
# Abutilon theophrasti [11] = assay: Herbicidal activity against Abutilon theophrasti (velvetleaf) assessed as visual injury at 100 ug/seedling applied to meristem after 1 week relative to control; type: functional
# Echinochloa crus-galli [12] = assay: Pre-emergence herbicidal activity against Echinochloa crus-galli (barnyard grass) assessed as meristematic at 0.5 to 4 kg/ha after 16 days; type: functional, organism-based
# Ipomoea hederacea [13] = assay: Pre-emergence herbicidal activity against Ipomoea hederacea (ivy-leaved morning glory) assessed as meristematic at 0.5 to 4 kg/ha after 16 days; type: functional, organism-based
# Helianthus annuus [14] = assay: Pre-emergence growth inhibition of Helianthus annuus (sunflower) assessed as meristematic at 0.5 to 4 kg/ha after 16 days; type: functional, organism-based
# Avena fatua [15] = assay: Pre-emergence growth inhibition of Avena fatua assessed as stunting at 0.5 to 4 kg/ha after 16 days; type: functional, organism-based
# Helianthus annuus [16] = assay: Pre-emergence growth inhibition of Helianthus annuus (sunflower) assessed as stunting at 0.5 to 4 kg/ha after 16 days; type: functional, organism-based
# Avena fatua [17] = assay: Pre-emergence growth inhibition of Avena fatua after 16 days; type: functional
# Helianthus annuus [18] = assay: Post-emergence growth inhibition of Helianthus annuus (sunflower) assessed as wilting at 0.5 to 4 kg/ha after 9 days; type: functional, organism-based
# Helianthus annuus [19] = assay: Post-emergence growth inhibition of Helianthus annuus (sunflower) assessed as meristematic at 0.5 to 4 kg/ha after 9 days; type: functional, organism-based
# Ipomoea hederacea [20] = assay: Post-emergence herbicidal activity against Ipomoea hederacea (ivy-leaved morning glory) assessed as stunting at 0.5 to 4 kg/ha after 9 days; type: functional, organism-based
# Echinochloa crus-galli [21] = assay: Post-emergence herbicidal activity against Echinochloa crus-galli (barnyard grass) assessed as stunting at 0.5 to 4 kg/ha after 9 days; type: functional, organism-based
# Echinochloa crus-galli [22] = assay: Pre-emergence herbicidal activity against Echinochloa crus-galli (barnyard grass) assessed as visual injury at 4 kg/ha after 16 days relative to control; type: functional
# Ipomoea hederacea [23] = assay: Pre-emergence herbicidal activity against Ipomoea hederacea (ivy-leaved morning glory) assessed as visual injury at 1 kg/ha after 16 days relative to control; type: functional
# Arabidopsis thaliana [24] = assay: Growth inhibition of Arabidopsis thaliana var. Columbia assessed as root tip puffing after 9 days by agarose-based test; type: functional, organism-based
# Arabidopsis thaliana [25] = assay: Growth inhibition of Arabidopsis thaliana var. Columbia assessed as stunting after 9 days by agarose-based test; type: functional, organism-based
# [26] = test system: Agrostis stolonifera var. palustris; assay: Herbicidal activity against Agrostis stolonifera var. palustris after 9 days by agarose-based test; type: functional
# Lemna minor [27] = assay: Herbicidal activity against Lemna minor (common duckweed) after 9 days; type: functional
# [28] = test system: Agrostis stolonifera var. palustris; assay: Herbicidal activity against Agrostis stolonifera var. palustris after 9 days; type: functional
# Lemna minor [29] = assay: Herbicidal activity against Lemna minor (common duckweed) assessed as visual injury at 0.04 ppm after 9 days relative to control; type: functional
# Lemna minor [30] = assay: Herbicidal activity against Lemna minor (common duckweed) assessed as visual injury at 0.2 ppm after 9 days relative to control; type: functional
# Lemna minor [31] = assay: Herbicidal activity against Lemna minor (common duckweed) assessed as visual injury at 1 ppm after 9 days relative to control; type: functional
# [32] = test system: Agrostis stolonifera var. palustris; assay: Herbicidal activity against Agrostis stolonifera var. palustris assessed as visual injury at 25 ppm after 9 days relative to control; type: functional
# [33] = test system: Agrostis stolonifera var. palustris; assay: Herbicidal activity against Agrostis stolonifera var. palustris assessed as visual injury at 5 ppm after 9 days relative to control; type: functional
# Helianthus annuus [34] = assay: Pre-emergence growth inhibition of Helianthus annuus (sunflower) assessed as visual injury at 2 kg/ha after 16 days relative to control; type: functional; parameters: scale not given: the % may be the effect or the level left
# Helianthus annuus [35] = assay: Pre-emergence growth inhibition of Helianthus annuus (sunflower) assessed as visual injury at 4 kg/ha after 16 days relative to control; type: functional; parameters: scale not given: the % may be the effect or the level left
# Avena fatua [36] = assay: Post-emergence growth inhibition of Avena fatua assessed as visual injury at 0.5 kg/ha after 9 days relative to control; type: functional; parameters: scale not given: the % may be the effect or the level left
# Avena fatua [37] = assay: Post-emergence growth inhibition of Avena fatua assessed as visual injury at 2 kg/ha after 9 days relative to control; type: functional; parameters: scale not given: the % may be the effect or the level left
# Avena fatua [38] = assay: Post-emergence growth inhibition of Avena fatua assessed as visual injury at 4 kg/ha after 9 days relative to control; type: functional; parameters: scale not given: the % may be the effect or the level left
# Echinochloa crus-galli [39] = assay: Post-emergence herbicidal activity against Echinochloa crus-galli (barnyard grass) assessed as visual injury at 0.5 kg/ha after 9 days relative to control; type: functional
# Echinochloa crus-galli [40] = assay: Post-emergence herbicidal activity against Echinochloa crus-galli (barnyard grass) assessed as visual injury at 1 kg/ha after 9 days relative to control; type: functional
# Echinochloa crus-galli [41] = assay: Post-emergence herbicidal activity against Echinochloa crus-galli (barnyard grass) assessed as visual injury at 2 kg/ha after 9 days relative to control; type: functional
# Ipomoea hederacea [42] = assay: Post-emergence herbicidal activity against Ipomoea hederacea (ivy-leaved morning glory) assessed as visual injury at 1 kg/ha after 9 days relative to control; type: functional
# Ipomoea hederacea [43] = assay: Post-emergence herbicidal activity against Ipomoea hederacea (ivy-leaved morning glory) assessed as visual injury at 4 kg/ha after 9 days relative to control; type: functional
# Helianthus annuus [44] = assay: Post-emergence growth inhibition of Helianthus annuus (sunflower) assessed as visual injury at 1 kg/ha after 9 days relative to control; type: functional; parameters: scale not given: the % may be the effect or the level left
# Helianthus annuus [45] = assay: Post-emergence growth inhibition of Helianthus annuus (sunflower) assessed as visual injury at 4 kg/ha after 9 days relative to control; type: functional; parameters: scale not given: the % may be the effect or the level left
# [46] = test system: Agrostis stolonifera var. palustris; assay: Herbicidal activity against Agrostis stolonifera var. palustris assessed as root tip puffing after 9 days by agarose-based test; type: functional, organism-based
# Avena fatua [47] = assay: Pre-emergence growth inhibition of Avena fatua assessed as visual injury at 1 kg/ha after 16 days relative to control; type: functional; parameters: scale not given: the % may be the effect or the level left
# Avena fatua [48] = assay: Pre-emergence growth inhibition of Avena fatua assessed as visual injury at 4 kg/ha after 16 days relative to control; type: functional; parameters: scale not given: the % may be the effect or the level left
# Echinochloa crus-galli [49] = assay: Pre-emergence herbicidal activity against Echinochloa crus-galli (barnyard grass) assessed as visual injury at 1 kg/ha after 16 days relative to control; type: functional
smiles,measurement,setting,value
CN1C(=O)[C@](O)(Cc2cccc(O)c2)N(C)C(=O)[C@@H]1Cc1c[nH]c2cccc([N+](=O)[O-])c12 [THAXTOMIN A],GR50,Avena fatua [1],2 kg/ha
same,Activity,Avena fatua [2],100%
same,Activity,Ipomoea hederacea [3],0%
same,Activity,Ipomoea hederacea [4],0%
same,Activity,Ipomoea hederacea [5],75%
same,Activity,Helianthus annuus [6],0%
same,Activity,Helianthus annuus [7],0%
same,Activity,Helianthus annuus [8],50%
same,Activity,Abutilon theophrasti [9],0%
same,Activity,Avena fatua [10],Active
same,Activity,Abutilon theophrasti [11],80%
same,Activity,Echinochloa crus-galli [12],Active
same,Activity,Ipomoea hederacea [13],Active
same,Activity,Helianthus annuus [14],Active
same,Activity,Avena fatua [15],Active
same,Activity,Helianthus annuus [16],Active
same,GR50,Avena fatua [17],<500 g/ha
same,Activity,Helianthus annuus [18],Active
same,Activity,Helianthus annuus [19],Active
same,Activity,Ipomoea hederacea [20],Active
same,Activity,Echinochloa crus-galli [21],Active
same,Activity,Echinochloa crus-galli [22],100%
same,Activity,Ipomoea hederacea [23],100%
same,growth inhibition (GI),Arabidopsis thaliana [24],Active
same,growth inhibition (GI),Arabidopsis thaliana [25],Active
same,I50,[26],25 ppb
same,GR50,Lemna minor [27],5 ppb
same,GR50,[28],12 ppb
same,Activity,Lemna minor [29],70%
same,Activity,Lemna minor [30],95%
same,Activity,Lemna minor [31],100%
same,Activity,[32],100%
same,Activity,[33],100%
same,Activity,Helianthus annuus [34],100%
same,Activity,Helianthus annuus [35],100%
same,Activity,Avena fatua [36],0%
same,Activity,Avena fatua [37],20%
same,Activity,Avena fatua [38],80%
same,Activity,Echinochloa crus-galli [39],10%
same,Activity,Echinochloa crus-galli [40],20%
same,Activity,Echinochloa crus-galli [41],40%
same,Activity,Ipomoea hederacea [42],80%
same,Activity,Ipomoea hederacea [43],85%
same,Activity,Helianthus annuus [44],85%
same,Activity,Helianthus annuus [45],85%
same,Activity,[46],Active
same,Activity,Avena fatua [47],100%
same,Activity,Avena fatua [48],100%
same,Activity,Echinochloa crus-galli [49],98%

# — ChEMBL document CHEMBL3046609, “Herbicidal properties of the thaxtomin group of phytotoxins” (2001)
